# Laboratory results from patent US20260216134A1, “CHARGED PI-CONJUGATED MOLECULES FOR THE TREATMENT OF MICROBIAL INFECTIONS” (priority 2023, published 2026).
# Columns and labels:
# [1] = system: HEK293 (epithelial-like kidney cells); assay: Presto Blue viability assay, HEK293; type: cell-based, human; conditions: HEK293, Presto Blue, 8 h treatment; read-out: IC50 (concentration needed to inhibit cell viability by 50%)
# Experimental: The biocompatibility of charged pi-conjugated compounds with mammalian cell lines was evaluated by studying the effects of different charged pi-conjugated compound concentrations on the viability of two mammalian cell lines: A549 (epithelial-like lung cells) and HEK293 (epithelial-like kidney cells). […] Dose-response curves were used to determine IC50 values, that is, the concentration of charged pi-conjugated compound needed to inhibit cell viability by 50%. […] The MIC of MRSA USA300 was used to calculate the therapeutic index. MRSA USA300 is a major contributor to community-associated MRSA infections, including skin and soft tissue infections, bacteraemia, endocarditis, bone and joint infections and nosocomial infections. […]
# The biocompatibility of charged pi-conjugated compounds with mammalian cell lines was assessed by determining their impact on the mitochondrial activity of human alveolar basal epithelial adenocarcinoma cells (A549) and human embryonic kidney cells (HEK293T) cells, using the Presto Blue assay according to the manufacturer's protocol. […] After 8 h, Presto Blue cell viability reagent (Thermo Fisher Scientific, Waltham, MA, USA) was added to the cells, and after 2 h of incubation, fluorescence was measured using a microplate reader (BioTek Instruments Inc., Winooski, VT, USA). […] The therapeutic index was calculated from the ratio between IC50 and the MIC.
# [2] = system: Gram-positive strains; assay: MIC / MIC50 by broth microdilution in panel of Gram-positive strains; type: cell-based; conditions: MIC50 over all Gram-positive strains tested (Table 2)
# Experimental: Antibacterial activity was assessed by determining the minimal inhibitory concentration (MIC) and the minimal bactericidal concentrations (MBC) and by monitoring time-dependent bacterial killing of exponentially growing cells. Bacterial cell suspensions (OD600≈0.02 in cation-adjusted Muller-Hinton Broth) were treated with increasing concentrations of the different molecules. The minimal inhibitory concentration (MIC) was defined as the minimal concentration of the molecule resulting in complete bacterial growth arrest. The minimal bactericidal concentration (MBC) was defined as the lowest concentration of the molecule that killed 99.9% of the inoculum. A molecule was determined to be bactericidal if the ratio of the MBC to the MIC was less than 4 to 6. […] In M. smegmatis, the antibacterial activity of charged pi-conjugated compounds was generally lower.
# The MIC values for all Gram-positive strains tested (Table 2) were used to calculate the MIC50, i.e., the minimum inhibitory concentration needed to inhibit the growth of 50% of the tested isolates (FIG. 5A). […] When the average MIC50 values were evaluated, the most susceptible bacterial genera were Streptococcus sp., followed by Staphylococcus sp. In contrast, Propionibacterium sp. had the highest average MIC50 (FIG. 5B).
# The broth microdilution method was used to determine the MIC of charged pi-conjugated compounds according to the CLSI guidelines. Charged pi-conjugated compound stock solutions (16 mM) were prepared in dimethyl sulfoxide (DMSO). Serial twofold dilutions of the charged pi-conjugated compounds were freshly prepared using the appropriate liquid media (Table 2), and 100 μL of each dilution was added to the appropriate wells of 96-well microtiter plates. The bacterial inoculum was further diluted in liquid media, and 100 μL was added to each well, resulting in a final cell density of ≈5×10^5 CFU mL^−1. […] A molecule was determined to be bactericidal if the ratio of the MBC to the MIC was less than 4 to 6. […]
structure (smiles),measurement,setting,value
"C[N+]1=C(/C=C/C2=CC(=C/C=C3/N(CCCCCC(=O)NCCCCCCN)c4ccc5ccccc5c4C3(C)C)/CCC2)C(C)(C)c2c1ccc1ccccc21.Cl.[Cl-] [Cy7.5-amine, Cyanine 7.5-amine]",IC50,[1],6.3 µM
same,antibacterial activity according to MIC50,[2],strongest antibacterial activity
